Laboratory results as given in PubChem BioAssay AID1963835 (Molecular Pharmacology Branch, DTP, NCI, 2024).

Test system: 699152-130-R-J1-PDC complex spheroid viability
Test: Anticancer human tumor 699152-130-R-J1-PDC patient-derived pancreatic carcinoma cell line growth inhibition [POLQ]
Details: for IC50: curve of first compound; for viability, T/C: stronger effect = lower value
Summary of the method: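 PDC + HUVEC + MSC complex spheroids; POLQ inhibitors ± partner drugs; top conc. at/near clinical Cmax, else 10 microM (SN-38 1 microM), half-log dilutions; 37 degrees C, 5% CO2.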

[1] = second compound 0.0316 µM, first compound 0.0316 µM
[2] = second compound 0.0316 µM, first compound 0.1 µM
[3] = second compound 0.0316 µM, first compound 0.316 µM
[4] = second compound 0.0316 µM, first compound 1 µM
[5] = second compound 0.0316 µM, first compound 3.16 µM
[6] = second compound 0.0316 µM, first compound 10 µM
[7] = second compound 0.1 µM, first compound 0.0316 µM
[8] = second compound 0.1 µM, first compound 0.1 µM
[9] = second compound 0.1 µM, first compound 0.316 µM
[10] = second compound 0.1 µM, first compound 1 µM
[11] = second compound 0.1 µM, first compound 3.16 µM
[12] = second compound 0.1 µM, first compound 10 µM
[13] = second compound 0.316 µM, first compound 0.0316 µM
[14] = second compound 0.316 µM, first compound 0.1 µM
[15] = second compound 0.316 µM, first compound 0.316 µM
[16] = second compound 0.316 µM, first compound 1 µM
[17] = second compound 0.316 µM, first compound 3.16 µM
[18] = second compound 0.316 µM, first compound 10 µM
[19] = second compound 1 µM, first compound 0.0316 µM
[20] = second compound 1 µM, first compound 0.1 µM
[21] = second compound 1 µM, first compound 0.316 µM
[22] = second compound 1 µM, first compound 1 µM
[23] = second compound 1 µM, first compound 3.16 µM
[24] = second compound 1 µM, first compound 10 µM
[25] = second compound 3.16 µM, first compound 0.0316 µM
[26] = second compound 3.16 µM, first compound 0.1 µM
[27] = second compound 3.16 µM, first compound 0.316 µM
[28] = second compound 3.16 µM, first compound 1 µM
[29] = second compound 3.16 µM, first compound 3.16 µM
[30] = second compound 3.16 µM, first compound 10 µM
[31] = second compound 10 µM, first compound 0.0316 µM
[32] = second compound 10 µM, first compound 0.1 µM
[33] = second compound 10 µM, first compound 0.316 µM
[34] = second compound 10 µM, first compound 1 µM
[35] = second compound 10 µM, first compound 3.16 µM
[36] = second compound 10 µM, first compound 10 µM
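Also: spheroids exposed to agents for 7 days before viability reading.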
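For viability, T/C in this document: percent of DMSO vehicle control viability so 100% = vehicle and 0% = no viable signal.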

CCc1cc2c(N3CCc4c(cc(Cn5ccnc5)cc4-c4cn(C)nc4C(F)(F)F)C3=O)ccnc2c(OC)n1 + Cc1cccc(N(C)C(=O)C2C(O)CCN2c2nc(C)cc(C(F)(F)F)c2C#N)c1
IC50 (second compound 0.0316 µM): > 10 µM
IC50 (second compound 0.1 µM): > 10 µM
IC50 (second compound 0.316 µM): > 10 µM
IC50 (second compound 1 µM): > 10 µM
IC50 (second compound 3.16 µM): > 10 µM
IC50 (second compound 10 µM): > 10 µM
viability, T/C [1]: 80%
viability, T/C [2]: 90.4%
viability, T/C [3]: 105%
viability, T/C [4]: 114%
viability, T/C [5]: 103%
viability, T/C [6]: 95%
viability, T/C [7]: 75.8%
viability, T/C [8]: 89.3%
viability, T/C [9]: 88.1%
viability, T/C [10]: 94.2%
viability, T/C [11]: 97.3%
viability, T/C [12]: 94.9%
viability, T/C [13]: 86.7%
viability, T/C [14]: 101%
viability, T/C [15]: 91.5%
viability, T/C [16]: 102%
viability, T/C [17]: 103%
viability, T/C [18]: 93.6%
viability, T/C [19]: 101%
viability, T/C [20]: 93%
viability, T/C [21]: 98.7%
viability, T/C [22]: 86.8%
viability, T/C [23]: 105%
viability, T/C [24]: 91.7%
viability, T/C [25]: 99.2%
viability, T/C [26]: 94.5%
viability, T/C [27]: 98.4%
viability, T/C [28]: 95.1%
viability, T/C [29]: 90.9%
viability, T/C [30]: 99.8%
viability, T/C [31]: 85.6%
viability, T/C [32]: 93.1%
viability, T/C [33]: 92.5%
viability, T/C [34]: 94.7%
viability, T/C [35]: 95.1%
viability, T/C [36]: 95.5%

CC1COCCN1c1cc(C2(O)CC3CCC(C2)O3)c2cnn(-c3ccn[nH]3)c2n1 (stereo not drawn) + COC1C(OC(N)=O)C(O)C(Oc2ccc3c(O)c(NC(=O)c4ccc(O)c(CC=C(C)C)c4)c(=O)oc3c2C)OC1(C)C
IC50 (second compound 0.0316 µM): 1.36 µM
IC50 (second compound 0.1 µM): 0.811 µM
IC50 (second compound 0.316 µM): 1.4 µM
IC50 (second compound 1 µM): 1.17 µM
IC50 (second compound 3.16 µM): 0.939 µM
IC50 (second compound 10 µM): 1.44 µM
viability, T/C [1]: 94.4%
viability, T/C [2]: 80.1%
viability, T/C [3]: 67.3%
viability, T/C [4]: 51.5%
viability, T/C [5]: 43%
viability, T/C [6]: 34.2%
viability, T/C [7]: 109%
viability, T/C [8]: 79.4%
viability, T/C [9]: 60.9%
viability, T/C [10]: 46.8%
viability, T/C [11]: 41.4%
viability, T/C [12]: 34.2%
viability, T/C [13]: 104%
viability, T/C [14]: 84.8%
viability, T/C [15]: 61%
viability, T/C [16]: 52.1%
viability, T/C [17]: 49%
viability, T/C [18]: 34.5%
viability, T/C [19]: 96.6%
viability, T/C [20]: 80.7%
viability, T/C [21]: 65.3%
viability, T/C [22]: 50.2%
viability, T/C [23]: 43.6%
viability, T/C [24]: 40.1%
viability, T/C [25]: 101%
viability, T/C [26]: 83%
viability, T/C [27]: 65%
viability, T/C [28]: 45.8%
viability, T/C [29]: 45.4%
viability, T/C [30]: 34.9%
viability, T/C [31]: 108%
viability, T/C [32]: 83.4%
viability, T/C [33]: 62.5%
viability, T/C [34]: 55.3%
viability, T/C [35]: 45.6%
viability, T/C [36]: 36.3%

COc1ccc([C@@H](O)c2cc(-c3ncnc4cc(N5CCOCC5)ccc34)c(F)cc2Cl)nn1 + COC1C(OC(N)=O)C(O)C(Oc2ccc3c(O)c(NC(=O)c4ccc(O)c(CC=C(C)C)c4)c(=O)oc3c2C)OC1(C)C
IC50 (second compound 0.0316 µM): 3.83 µM
IC50 (second compound 0.1 µM): 4.13 µM
IC50 (second compound 0.316 µM): 3.83 µM
IC50 (second compound 1 µM): 3.58 µM
IC50 (second compound 3.16 µM): 4.02 µM
IC50 (second compound 10 µM): 4.25 µM
viability, T/C [1]: 94.5%
viability, T/C [2]: 96.9%
viability, T/C [3]: 85.6%
viability, T/C [4]: 82.8%
viability, T/C [5]: 53.9%
viability, T/C [6]: 26.3%
viability, T/C [7]: 112%
viability, T/C [8]: 87%
viability, T/C [9]: 87%
viability, T/C [10]: 83%
viability, T/C [11]: 56.1%
viability, T/C [12]: 27.4%
viability, T/C [13]: 113%
viability, T/C [14]: 107%
viability, T/C [15]: 92.2%
viability, T/C [16]: 80.4%
viability, T/C [17]: 54.7%
viability, T/C [18]: 24%
viability, T/C [19]: 118%
viability, T/C [20]: 98.1%
viability, T/C [21]: 96.9%
viability, T/C [22]: 70.1%
viability, T/C [23]: 58.5%
viability, T/C [24]: 22.6%
viability, T/C [25]: 98.3%
viability, T/C [26]: 108%
viability, T/C [27]: 86.6%
viability, T/C [28]: 88.7%
viability, T/C [29]: 56.2%
viability, T/C [30]: 21.6%
viability, T/C [31]: 101%
viability, T/C [32]: 90.8%
viability, T/C [33]: 90.9%
viability, T/C [34]: 71.6%
viability, T/C [35]: 60.6%
viability, T/C [36]: 27.7%

O=C(c1cc(Cc2n[nH]c(=O)c3ccccc23)ccc1F)N1CCN(C(=O)C2CC2)CC1 + Nc1ccc(C#CCN(C(=O)Cc2ncc(C(F)(F)F)cc2C(F)(F)F)c2ccc(F)cc2)nn1
IC50 (second compound 0.0316 µM): > 10 µM
IC50 (second compound 0.1 µM): > 10 µM
IC50 (second compound 0.316 µM): > 10 µM
IC50 (second compound 1 µM): > 10 µM
IC50 (second compound 3.16 µM): > 10 µM
IC50 (second compound 10 µM): > 10 µM
viability, T/C [1]: 88.9%
viability, T/C [2]: 99.8%
viability, T/C [3]: 81.6%
viability, T/C [4]: 109%
viability, T/C [5]: 85.3%
viability, T/C [6]: 93.2%
viability, T/C [7]: 95%
viability, T/C [8]: 110%
viability, T/C [9]: 97.8%
viability, T/C [10]: 95.4%
viability, T/C [11]: 99.6%
viability, T/C [12]: 82.3%
viability, T/C [13]: 100%
viability, T/C [14]: 114%
viability, T/C [15]: 101%
viability, T/C [16]: 92.8%
viability, T/C [17]: 96.3%
viability, T/C [18]: 85.3%
viability, T/C [19]: 105%
viability, T/C [20]: 99.2%
viability, T/C [21]: 98.5%
viability, T/C [22]: 112%
viability, T/C [23]: 86.7%
viability, T/C [24]: 77.5%
viability, T/C [25]: 108%
viability, T/C [26]: 113%
viability, T/C [27]: 114%
viability, T/C [28]: 98.6%
viability, T/C [29]: 88%
viability, T/C [30]: 81.8%
viability, T/C [31]: 103%
viability, T/C [32]: 107%
viability, T/C [33]: 108%
viability, T/C [34]: 107%
viability, T/C [35]: 113%
viability, T/C [36]: 97.8%
